Experimental data from patent US8609651B2, “Pharmaceutical compositions of benzodiazepines and method of use thereof” (Jazz Pharmaceuticals, Inc., priority 2006, dated 2013).
≈ marks a conversion by molar mass, not a printed value. Like-named read-outs stand apart in the source and are kept apart here.

What was measured:
[1] = Saturated solubility in receiver fluid systems (HPLC); details: 37 °C, thermodynamic from solid
Description: Following the stability studies, a suitable receiver fluid was developed in order to ensure that sink conditions for tested drug were such that the drug release was limited by the solubility of the drug in the receiver fluid. […] Briefly, drug was saturated into different receiver fluid systems by adding excess drug and allowed to stir with a magnetic flea over a period of 2 h at 37° C. Each saturated solution was then filtered using a 0.2 μm syringe filter and the resultant solution was assayed via HPLC.
Calibration curves for clonazepam were constructed between 0.2 to 10 μg/mL with appropriate replicates to ensure repeatability and linearity.
Standards were prepared in receiver fluid (10% ethanol in buffer 6). […] The filtration at room temperature was performed as quickly as possible to minimize any drug precipitation as the temperature dropped from 37° C. during filtration.

[2] = Drug recovery, degradation and binding to nasal sheep mucosa; format: in vitro ADME; details: sheep nasal mucosa (excised tissue) in buffer, 37° C., read-out: % recovery in the presence of nasal sheep mucosa
Description: (i) Drug recovery, degradation and binding to nasal sheep mucosa: The effect of drug recovery, degradation and binding to sheep nasal mucosa was determined. Briefly, a known surface area (approx. 1 cm^2) of sheep nasal mucosa was added into a glass vial containing a known concentration (10 μg/mL) of each drug prepared in the receiver fluid (10% ethanol in pH 6 buffer). The content of the vial was allowed to equilibrate at 37° C. over a period of 48 h. At 24 h intervals, a sample was removed and assayed via HPLC. The percentage of drug recovered was calculated using Equation 4: % drug recovered=(drug concentration at t=Y/drug concentration at t=Z)×100 (Equation 4)
where, Y=specific time point at 37° C. (in the presence of nasal sheep mucosa); and Z=specific time point at 37° C. (in the absence of nasal sheep mucosa).
In addition to the stability against heat degradation, the effect of drug binding or degradation in the presence of nasal sheep mucosa was also determined (Table 6).

[3] = Solubility of clonazepam in neat solvents
Description: The solubility of clonazepam in a number of neat solvents was determined using standard methods.

[4] = Solubility of clonazepam in glycol ethers at 25° C.; details: neat solvent, organic solvent or mixture, thermodynamic from solid
Description: 10 mg of clonazepam was weighed into glass vials used in the Pfeiffer mono-dose spray system (Pfeiffer of America, Princeton, N.J.). Four samples of each of four solvents were prepared as follows. 130-μL of each solvent was pipetted into the vial, which was then stoppered with a black chlorobutyl rubber stopper.
The vials were removed from the chamber, placed inside polyethylene centrifuge vials, and centrifuged for 2 minutes at 5000 rpm. 10 μL of liquid was then sampled from each vial, accurately weighed, and diluted with 1 mL of acetonitrile. The drug concentration was analyzed by UV using an Agilent HPLC system with no column, 10 μL injection volume, acetonitrile mobile phase, 0.3 mL/min and UV detection at 350 nm.

[5] = Solubilities of clonazepam in water-containing solvents; format: physicochemical; details: 25 °C
Description: The vials were stored at 25° C. for approximately 1 day. Prior to sampling, the vials were centrifuged at 5000 rpm for 2 minutes at 23° C. The results are shown below; neat solvent solubilities from Example 11 are included for reference. Increased water content decreases solubility substantially.

[6] = Human pharmacokinetic study (oral, intravenous, intranasal cross-over); details: 1 mg; for AUC / Cmax / Tmax / bioavailability: male, plasma; for bioavailability: other: intranasal, intranasal 1 mg
Description: The human pharmacokinetics, safety, and tolerability of the benzodiazepines compositions of the present invention formulated for intranasal delivery for therapeutic applications are evaluated using standard clinical procedures. Benzodiazepine compositions formulated for intranasal delivery are provided, for example, for application by the participants to intranasal mucosa.
A primary objective of initial studies in humans is to determine and compare pharmacokinetic profiles of three dosage forms of a benzodiazepine: oral, i.v., and intranasal, following single administration. An example of such a study in humans is a cross-over study performed in 12 healthy male volunteers. Plasma and urine level of clonazepam and 7-amino-clonazepam are determined, for example, using HPLC and UV detection. […] Further the initial studies in humans are used to determine local tolerability of intranasal formulation using questionnaire and the Visual Analog Scale (VAS). VAS is a validated instrument that has been used in numerous studies to quantify subjective […]. In addition, cognitive, sleepiness and mood effects are evaluated using questionnaires and scales (see, e.g., Example 10 below). Further, attention and vigilance may be evaluated using, for example, LEEDS Psychomotor Multiple Choice Reaction Time (MCRT) testing.
A human pharmacokinetic study was carried out as described in Example 8.
15 young, healthy male volunteers received a single dose of 1 mg clonazepam by oral, intravenous and intranasal routes in a three-period cross-over design.

[7] = in vivo; cited from earlier work
[8] = Solubility of clonazepam in binary solvent mixtures; details: triacetin/glycofurol 50:50 mixture, 25 °C, organic solvent or mixture, thermodynamic from solid
Description: Further, the solubility of clonazepam in binary mixtures of Transcutol® (TC), triacetin (TA), glycofurol (GF) and propylene glycol (PG) was evaluated. Solubility limits of clonazepam were determined for the following formulations:
Excess drug (50 mg) was capped with about 500 μL of the solvent matrix in a 1.5 mL microfuge tube and the solution was mixed on a vortex shaker for several minutes. Thereafter, the solution was placed in an ultrasonic bath at 25° C. for 45 minutes. The temperature was regulated with a thermometer and controlled by adding ice into the bath. After 15 minutes of standing, the solutions were centrifuged at 3,000×g for 30 minutes. Solutions were then stored for 16 hours at 25° C. in an ICH cabinet protected from light.

## O=C1CN=C(c2ccccc2Cl)c2cc([N+](=O)[O-])ccc2N1 [Clonazepam, 5-(2-chlorophenyl)-1,3-dihydro-7-nitro-2H-1,4-benzodiazepin-2-one]
[1]; pH 6, aqueous buffer, buffer pH 6, 37° C.
  solubility at 2 h: 13.7 µg/mL (≈ 0.0433 mM)
[1]; pH 6, aqueous with cosolvent or surfactant or cyclodextrin, 20% ethanol in buffer pH6, 37° C.
  solubility at 2 h: 82.3 µg/mL (≈ 0.261 mM)
[1]; pH 6, aqueous with cosolvent or surfactant or cyclodextrin, receiver solution, 10% ethanol in buffer pH 6, 37° C.
  solubility at 2 h: 29.3 µg/mL (≈ 0.0929 mM)
[2]; buffer pH 5 (10% ethanol)
  recovery at 24 h, 10 μg/mL: 97.8%
  recovery at 48 h, 10 μg/mL: 96.5%
[2]; buffer pH 6 (10% ethanol)
  recovery at 24 h, 10 μg/mL: 97.5%
  recovery at 48 h, 10 μg/mL: 97.1%
[2]; buffer pH 7 (10% ethanol)
  recovery at 24 h, 10 μg/mL: 99.3%
  recovery at 48 h, 10 μg/mL: 97.8%
[3]; PEG 200 (neat solvent), organic solvent or mixture
  solubility: 30300 µg/mL (≈ 96 mM)
[3]; PEG 300 (neat solvent), organic solvent or mixture
  solubility: 37000 µg/mL (≈ 117 mM)
[3]; Transcutol (neat solvent), organic solvent or mixture
  solubility: 38700 µg/mL (≈ 123 mM)
[3]; glycofurol (neat solvent), organic solvent or mixture
  solubility: 67300 µg/mL (≈ 213 mM)
[3]; propylene glycol (neat solvent), organic solvent or mixture
  solubility: 3400 µg/mL (≈ 10.8 mM)
[3]; triacetin (neat solvent), organic solvent or mixture
  solubility: 5800 µg/mL (≈ 18.4 mM)
[3]; water
  solubility: < 100 µg/mL
[4]; 1,2-dimethyxoethane
  solubility: 39300 µg/mL (≈ 124 mM)
[4]; di(ethylene glycol) diethyl ether
  solubility: 19000 µg/mL (≈ 60.2 mM)
[4]; di(ethylene glycol) methyl ether
  solubility: 56400 µg/mL (≈ 179 mM)
[4]; diethylene glycol monoethyl ether (DEGEE)
  solubility: 41800 µg/mL (≈ 132 mM)
[5]; 1,2-dimethyxoethane / pH 6.8 buffered water mixture (20:80), pH 6.8, aqueous with cosolvent or surfactant or cyclodextrin, kinetic from dmso stock, 1,2-dimethyxoethane 20% solvent, 80% pH6.8 buffered water, 25° C.
  solubility: 180 µg/mL (≈ 0.57 mM)
[5]; 1,2-dimethyxoethane / pH 6.8 buffered water mixture (40:60), pH 6.8, aqueous with cosolvent or surfactant or cyclodextrin, kinetic from dmso stock, 1,2-dimethyxoethane 40% solvent, 60% pH6.8 buffered water, 25° C.
  solubility: 640 µg/mL (≈ 2.03 mM)
[5]; 1,2-dimethyxoethane / pH 6.8 buffered water mixture (60:40), pH 6.8, aqueous with cosolvent or surfactant or cyclodextrin, kinetic from dmso stock, 1,2-dimethyxoethane 60% solvent, 40% pH6.8 buffered water, 25° C.
  solubility: 9200 µg/mL (≈ 29.1 mM)
[5]; 1,2-dimethyxoethane / pH 6.8 buffered water mixture (80:20), pH 6.8, aqueous with cosolvent or surfactant or cyclodextrin, kinetic from dmso stock, 1,2-dimethyxoethane 80% solvent, 20% pH6.8 buffered water, 25° C.
  solubility: 29600 µg/mL (≈ 93.8 mM)
[5]; 1,2-dimethyxoethane, neat solvent, organic solvent or mixture, 1,2-dimethyxoethane 100% solvent, 0% water, 25° C. (neat, from Example 11)
  solubility: 39300 µg/mL (≈ 124 mM)
[5]; pH 6.8, aqueous with cosolvent or surfactant or cyclodextrin, kinetic from dmso stock, Di (ethylene glycol) methyl ether 20% solvent, 80% pH6.8 buffered water
  solubility: 260 µg/mL (≈ 0.824 mM)
[5]; pH 6.8, aqueous with cosolvent or surfactant or cyclodextrin, kinetic from dmso stock, Di (ethylene glycol) methyl ether 40% solvent, 60% pH6.8 buffered water
  solubility: 1000 µg/mL (≈ 3.17 mM)
[5]; pH 6.8, aqueous with cosolvent or surfactant or cyclodextrin, kinetic from dmso stock, Di (ethylene glycol) methyl ether 60% solvent, 40% pH6.8 buffered water
  solubility: 2800 µg/mL (≈ 8.87 mM)
[5]; pH 6.8, aqueous with cosolvent or surfactant or cyclodextrin, kinetic from dmso stock, Di (ethylene glycol) methyl ether 80% solvent, 20% pH6.8 buffered water
  solubility: 18900 µg/mL (≈ 59.9 mM)
[5]; pH 6.8, aqueous with cosolvent or surfactant or cyclodextrin, kinetic from dmso stock, Di (ethyleneglycol) diethyl ether 20% solvent, 80% pH6.8 buffered water
  solubility: 310 µg/mL (≈ 0.982 mM)
[5]; pH 6.8, aqueous with cosolvent or surfactant or cyclodextrin, kinetic from dmso stock, Di (ethyleneglycol) diethyl ether 40% solvent, 60% pH6.8 buffered water
  solubility: 1230 µg/mL (≈ 3.9 mM)
[5]; pH 6.8, aqueous with cosolvent or surfactant or cyclodextrin, kinetic from dmso stock, Di (ethyleneglycol) diethyl ether 60% solvent, 40% pH6.8 buffered water
  solubility: 8500 µg/mL (≈ 26.9 mM)
[5]; pH 6.8, aqueous with cosolvent or surfactant or cyclodextrin, kinetic from dmso stock, Di (ethyleneglycol) diethyl ether 80% solvent, 20% pH6.8 buffered water
  solubility: 38800 µg/mL (≈ 123 mM)
[5]; pH 6.8, aqueous with cosolvent or surfactant or cyclodextrin, kinetic from dmso stock, Diethylene glycol monoethyl ether 20% solvent, 80% pH6.8 buffered water
  solubility: 300 µg/mL (≈ 0.95 mM)
[5]; pH 6.8, aqueous with cosolvent or surfactant or cyclodextrin, kinetic from dmso stock, Diethylene glycol monoethyl ether 40% solvent, 60% pH6.8 buffered water
  solubility: 520 µg/mL (≈ 1.65 mM)
[5]; pH 6.8, aqueous with cosolvent or surfactant or cyclodextrin, kinetic from dmso stock, Diethylene glycol monoethyl ether 60% solvent, 40% pH6.8 buffered water
  solubility: 4500 µg/mL (≈ 14.3 mM)
[5]; pH 6.8, aqueous with cosolvent or surfactant or cyclodextrin, kinetic from dmso stock, Diethylene glycol monoethyl ether 80% solvent, 20% pH6.8 buffered water
  solubility: 21800 µg/mL (≈ 69 mM)
[5]; di(ethylene glycol) diethyl ether, neat solvent, organic solvent or mixture, Di (ethyleneglycol) diethyl ether 100% solvent, 0% water, 25° C. (neat, from Example 11)
  solubility: 19000 µg/mL (≈ 60.2 mM)
[5]; di(ethylene glycol) methyl ether, neat solvent, organic solvent or mixture, Di (ethylene glycol) methyl ether 100% solvent, 0% water, 25° C. (neat, from Example 11)
  solubility: 56400 µg/mL (≈ 179 mM)
[5]; diethylene glycol monoethyl ether (DEGEE), neat solvent, organic solvent or mixture, Diethylene glycol monoethyl ether 100% solvent, 0% water, 25° C. (neat, from Example 11)
  solubility: 41800 µg/mL (≈ 132 mM)
[6]
  Cmax of the intranasal route as % of the intravenous route: 17%
  Cmax of the intranasal route as % of the oral route: 93%
[6]; inhaled or intranasal
  AUC: ~58 ng·h/mL
  Cmax: 7.12 ± 3.81 ng/mL
  Tmax: 12 min
[6]; intravenous
  Tmax: 6 min
[6]; iv
  AUC: ~106 ng·h/mL
  Cmax: 42.5 ± 10.8 ng/mL
[6]; bioavailability relative to intravenous
  bioavailability: 55%
[6]; bioavailability relative to oral
  bioavailability: 61%
[6]; po
  AUC: ~95 ng·h/mL
  Cmax: 7.64 ± 1.74 ng/mL
  Tmax: 120 min
[7]
  amount excreted unchanged in the urine: less than 0.5 % of a dose
  excreted in the feces: 9-27 % of a dose
  half-life: 1080 to 3000 min
  roughly equal dose (potency equivalence): ~0.25 mg
[8]
  solubility at 16 h: ~36400 µg/mL (≈ 115 mM)
